Measured values published in patent publication US20220267258A1, “ROBENIDINE ANALOGS AS POTENT ANTIMALARIALS AGAINST DRUG-RESISTANT PLASMODIUM FALCIPARUM” (OREGON HEALTH & SCIENCE UNIVERSITY, priority 2021, published 2022).

Columns and labels:
[1] = test system: human hepatoma derived HepG2 cells; test: HepG2 cytotoxicity assay (resazurin); assay type: cell-based; conditions: HepG2, 24 hr drug, 24 hr recovery
Protocol: In this assay, HepG2 cells were incubated with test compounds for 24 hours, followed by a 24-hour recovery period and subsequent staining to evaluate for cytotoxic effects with resazurin. The ratio of the resulting HepG2 IC50 value to the P. falciparum D6 IC50 value can be considered an ‘in vitro therapeutic index,’ or IVTI.
Compounds were prepared as 10 mM stock solutions in DMSO. […] HepG2 cells were added to each well of flat bottom 96-well tissue culture plates at an initial density of 2×10^4 cells per well, and an initial volume of 160 μL complete medium per well. After an overnight incubation at 37° C. to adhere the cells to the culture plates, 40 μL drug solutions in complete medium were applied to each well at a final concentration range of 0 to 200 μM across each plate. Drugs were tested in triplicate or quadruplicate. The cells were incubated for 24 hours at 37° C. and 5% CO2 with the drug solutions, which were then aspirated and replaced with 200 μL per well of complete medium for an additional 24 hour incubation under the same conditions. To each well was added 20 μL of resazurin (Alamar Blue) in PBS buffer to a final concentration of 10 μM, and the plates were incubated for 3 hours. Fluorescence was measured at 560 nm excitation and 590 nm emission bands using a Spectramax iD3 plate reader. Fluorescence readings were normalized with respect to the untreated control wells and plotted against the logarithm of drug concentration.

Babesia microti = conditions: oral; cited from earlier work
[2] = murine microsomal stability; conditions: from t1/2, assumed murine hepatic blood flow 90 mL/min/kg
Protocol: To investigate the relationship between the aminoguanidines' in vivo efficacy and their metabolic properties, the murine microsomal stability of a selection of aminoguanidines was evaluated (Table 6). Robenidine, 16, 21, 1, and the control compound ketanserin were incubated with pooled murine liver microsomes and monitored for degradation by LC/MS/MS for one hour. The concentration vs. time plot for each compound was used to determine its biological half-life (t1/2) and predicted intrinsic clearance (Clint).
Metabolic stability studies of selected aminoguanidines were performed at ChemPartner, Shanghai, China. Compounds were incubated at 37° C. and 1 μM concentration in murine liver microsomes (Corning) for one hour at a protein concentration of 0.5 mg/mL in potassium phosphate buffer at pH 7.4 containing 1.0 mM EDTA. The metabolic reaction was initiated by NADPH and quenched with ice-cold acetonitrile at 15 minute increments up to one hour.

P. berghei = conditions: murine species P. berghei, 1970; cited from earlier work
Plasmodium yoelii = test: modified 4-day Peters test, murine malaria; assay type: in vivo, mice
Protocol: In this modified 4-day Peters test,^41 mice were inoculated with parasites from a donor mouse (day 0), and then dosed orally with drugs on each of the subsequent four days (days 1-4). On day 5 of the experiment, the parasitemia for each mouse was determined microscopically by examining methanol-fixed and Giemsa-stained blood smears. The ED50 represents the interpolated dose of a compound at which parasitemia was suppressed to one half that of untreated controls. Similarly, the ED90 represents the dose at which parasitemia is suppressed ten-fold. Mice were considered cured of their infection if no parasites were detected in the blood 30 days from the first drug administration, and the non-recrudescence dose (NRD) represents the lowest dose to achieve a cure.
The in vivo ED50 and ED90 of selected aminoguanidines was measured using a modified 4-day Peters test. Female CF1 mice from Charles River Laboratories were inoculated intravenously with approximately 2.5-5.0×10^4 parasitized erythrocytes (murine malaria P. yoelii, Kenya strain MR4 MRA-428) from a donor mouse (experiment day zero). On the following four days (experiment days 1-4), solutions of the test compounds in PEG-300 (or PEG-300 only for control mice) were administered by oral gavage once daily. […] Parasitemia of each mouse was determined by microscopic examination of Giemsa stained blood smears on day 5. ED50 and ED90 values were assessed by generating dose-response curves relative to untreated controls using Graphpad Prism (v. 8). Mice were considered cured of malarial infection if they maintained 0% parasitemia at experiment day 30. The procedures involved, together with all matters relating to the care, handling, and housing of the animals used in this study, were approved by the Portland VA Medical Center Institutional Animal Care and Use Committee.

P. falciparum Dd2 = test: SYBR Green growth inhibition assay, P. falciparum Dd2; assay type: cell-based, Plasmodium falciparum; conditions: multi-drug resistant strain, 72 hr; read-out: IC50 Dd2
Protocol: (§1) In addition to the drug-sensitive P. falciparum D6 strain, the aminoguanidines were assessed against three drug-resistant strains (Tables 1-3).
(§2) The following parasite strains were used in this study and obtained through BEI Resources, NIAID, NIH. […] The culture medium used was RPMI-1640, supplemented with 25 mM HEPES buffer, 25 mg/L gentamicin sulfate, 45 mg/L hypoxanthine, 10 mM glucose, 2 mM glutamine, and 0.5% Albumax II (complete medium).^43 Cultures were maintained in a standard low oxygen atmosphere (5% O2, 5% CO2, 90% N2) in an environmental chamber and incubated at 37° C. Cultures were sub-passaged every 3-4 days into a fresh culture flask containing complete media and erythrocytes.
(§3) The aminoguanidine series was assessed for in vitro antiplasmodial activity using the fluorescence-based SYBR Green assay described previously by Smilkstein and co-workers.^38 Compounds were evaluated in quadruplicate in flat-bottomed Costar clear 96-well plates (Model #3585). A two-fold serial dilution of each compound was performed across the columns of the test plates starting with 20 μM and ending with a final untreated column to serve as control wells. Asynchronous parasite infected erythrocytes in growth media were added to each well for a total volume of 100 μL, final hematocrit of 2%, and initial parasitemia of 0.2%. The commercial malaria drugs atovaquone and chloroquine were used as control drugs. Test plates were incubated for 72 hr at 37° C. in an environmental chamber with a controlled low oxygen atmosphere (5% O2, 5% CO2, 90% N2). After the incubation period, 100 μL SYBR Green I dye-detergent solution was added to each well, and the plates were incubated at ambient temperature and atmosphere in the dark for at least one hour. Fluorescence was read at 497 nm excitation and 520 nm emission bands using a Spectramax iD3 plate reader. Fluorescence readings were normalized with respect to the untreated control wells representing normal parasite growth and plotted against the logarithm of drug concentration.

P. falciparum Tm90-C2B = test: SYBR Green growth inhibition assay, P. falciparum Tm90-C2B; assay type: cell-based, Plasmodium falciparum; conditions: multi-drug resistant clinical isolate, also atovaquone resistant, 72 hr; read-out: IC50 Tm90-C2B
Protocol: as §1, §2, §3

P. falciparum A6 = test: SYBR Green growth inhibition assay, P. falciparum A6; assay type: cell-based, Plasmodium falciparum; conditions: mutant line resistant to respiratory antagonists, 72 hr; read-out: IC50 A6
Protocol: as §1, §2, §3

P. falciparum strain D6 = test: SYBR Green growth inhibition assay, P. falciparum D6; assay type: cell-based, Plasmodium falciparum; conditions: pan-sensitive strain, 72 hr, asynchronous cultures in human erythrocytes; read-out: IC50 D6
Protocol: The in vitro activity of each compound in the aminoguanidine library was assessed against asynchronous cultures of Plasmodium falciparum parasites replicating within human erythrocytes (Tables 1-3). As the chemical development of robenidine was not discussed in its original publication in 1970^4 and limited structural information is available regarding its mechanism of action,^10 profiling was guided primarily by in vitro potency against the P. falciparum D6 strain cultured in human erythrocytes as described above.
as §2
as §3, with “The commercial malaria drugs atovaquone and chloroquine were used as control drugs.” left out

Toxoplasma gondii = conditions: cited from earlier work
[3] = oral gavage days 1-4, parasitemia day 5

For N=C(N/N=C/c1ccc(Cl)cc1)N/N=C/c1ccc(Cl)cc1 [Robenidine], the IC50 [1] is given as 30000 nM, the “murine in vivo non-recrudescence dose” value (Babesia microti) is given as 100 mg/kg/day and the “Predicted Clint” value [2] is given as 34.40 mL/min/kg. The activity in vivo (P. berghei) was “moderate activity”, the “P. yoelii ED50” value (Plasmodium yoelii; [3]) was 1.6 mg/kg/day and the “P. yoelii ED90” value (Plasmodium yoelii; [3]) was 4.9 mg/kg/day. For the same molecule, the “P. yoelii NRD (non-recrudescence dose, cure dose)” value (Plasmodium yoelii; oral, doses up to 25 mg/kg/day, no parasites at day 30) was over 25 mg/kg/day, the IC50 (P. falciparum Dd2) was 814 nM and the IC50 (P. falciparum Tm90-C2B) was 1320 nM. The IC50 (P. falciparum A6) was 410 nM, the IC50 (P. falciparum strain D6) was 324 nM and the “in vitro IC50” value (Toxoplasma gondii) was 0.03 µg/mL.
